{"source": "patent US12546780B2", "about": "“Method for identifying ubiquitin and ubiquitin-like enzyme activities” (CENTRE NATIONAL DE LA RECHERCHE SCIENTIFIQUE, priority 2019, dated 2026)", "key": {"[1]": {"test_system": "UBC12 protein NEDDylation", "test": "Bead method: NEDD8 level on UBC12 beads with HL60 cell extracts", "type": "cell-based", "details": "HL60 cells, 1 μM, 6 h", "protocol": "HL60 cells were first treated with 1 μM of MLN4924, DMSO, or only with the culture medium for 6 h. Beads supporting UBC12, (NEDDylation E2 enzyme, which was previously reported to be modified by NEDD8) were contacted with said cell extracts, and NEDD8 level was assessed.\n(§1) Cells grown at a 5-8.10^5/mL density were spun down (300 g) at 4° C. for 5 min and washed once with PBS. After pellet resuspension in 1 mL of PBS, they were centrifuged again (16,000 g) at 4° C. for 5 min. Pellets were resuspended and incubated at 4° C. for 30 min in a hypotonic buffer (20 mM HEPES pH 7.5, 1.5 mM MgCl2, 5 mM KCl, 1 mM DTT and 1 mg/L of aprotinine, leupeptin and pepstatin) in a volume of 25 μL per 2.10^6 cells. Cell lysis was achieved through 4 freezing/thawing cycles using liquid nitrogen and DNA was sheared owing to 10 passages through a 20-1/2 G needle. Extracts were finally centrifuged twice (16000 g) at 4° C. for 20 min and supernatants were aliquoted, flash-frozen and kept at −80° C. until use. […]\n(§2) SUMO-1-, SUMO-2-, NEDD8 and Ubiquitin vinyl sulfones (0.5 μM each) were added to cellular extracts (10 μL), which were incubated at 4° C. for 15 min. […] They were then resuspended in 200 μL PBS and flow-cytometry-analysed using the LSR Fortessa device from BD Biosciences. Results were analysed using the FlowJow software."}, "[2]": {"test_system": "SUMOylation activity on ZMYM5 protein", "test": "Bead method: SUMOylation activity on ZMYM5 with HL60 cell extracts", "type": "cell-based", "details": "HL60 cells, 0-500 nM, 6 h; ZMYM5 beads", "protocol": "ZMYM5 was used as a marker of SUMOylation, OTUD6B as a marker of NEDDylation, and TMEM92, BEAN and WBP2 as a marker of ubiquitinylation. […]\n(§3) Cells grown at a 5-8.10^5/mL density were spun down (300 g) at 4° C. for 5 min and washed once with PBS. After pellet resuspension in 1 mL of PBS, they were centrifuged again (16,000 g) at 4° C. for 5 min. Pellets were resuspended and incubated at 4° C. for 30 min in a hypotonic buffer (20 mM HEPES pH 7.5, 1.5 mM MgCl2, 5 mM KCl, 1 mM DTT and 1 mg/L of aprotinine, leupeptin and pepstatin) in a volume of 25 μL per 2.10^6 cells. Cell lysis was achieved through 4 freezing/thawing cycles using liquid nitrogen and DNA was sheared owing to 10 passages through a 20-1/2 G needle. Extracts were finally centrifuged twice (16000 g) at 4° C. for 20 min and supernatants were aliquoted, flash-frozen and kept at −80° C. until use.\n2.10^5 magnetic MagPlex XMap beads (low concentration) from Luminex were transferred to a low binding microtube (Eppendorf) and washed using 500 mM NaCl. […]\nas §2"}, "[3]": {"test_system": "ubiquitination activity (TMEM92, BEAN1, WBP2)", "test": "Bead method: ubiquitination activity on TMEM92, BEAN1 or WBP2 beads with HL60 cell extracts", "type": "cell-based", "details": "HL60 cells, 6 h", "protocol": "Cells extracts were prepared and contacted with beads coated with either TMEM92, BEAN1 or WBP2 proteins.\nas §3\n2.10^5 magnetic MagPlex XMap beads (low concentration) from Luminex were transferred to a low binding microtube (Eppendorf) and washed using 500 mM NaCl. They were then resuspended in 50 μL of 50 mM MES pH 6.1 and incubated in the presence of 5 mg/mL 1-ethyl-3-(3-dimethylaminopropyl) carbodiimide hydrochloride (EDC, Pierce) and 5 mg/mL Sulfo-NHS (Pierce) at room temperature for 20 min. Beads were then washed in PBS containing 500 mM NaCl and incubated with 7 μg of recombinant protein to be coupled in 100 μL PBS at room temperature for 2 hrs. They were then washed twice with PBS containing 0.1% BSA, 0.02% Tween 20, 0.05% sodium azide and 500 mM NaCland stored at 4° C. in PBS containing 0.1% BSA, 0.02% Tween-20, 0.05% sodium azide.\nas §2, with “min. Control extracts were also incubated with 50 mM NEM.” for “min.”"}, "NEDDylation of OTUD6B": {"test_system": "NEDDylation of OTUD6B", "test": "Bead method: NEDD8 addition on OTUD6B beads with HL60 cell extracts", "type": "cell-based", "details": "HL60 cells, 0-500 nM, 6 h", "protocol": "FIG. 8 represents graphs evaluating Ubiquitin addition on beads coated with TMEM92 (1), BEAN1 (2), WBP2 (3) proteins, SUMO1 addition on beads coated with ZMYM5 (4) or NEDD8 addition on beads coated with OTUD6B (5). […] As control, cell extracts treated N-ethylmaleimide (NEM) are used (A).\nZMYM5 was used as a marker of SUMOylation, OTUD6B as a marker of NEDDylation, and TMEM92, BEAN and WBP2 as a marker of ubiquitinylation.\nas §1, with “needle.” for “needle. Extracts were finally centrifuged twice (16000 g) at 4° C. for 20 min and supernatants were aliquoted, flash-frozen and kept at −80° C. until use.”\nas §2"}, "SUMOylation activity": {"test_system": "SUMOylation activity", "details": "read-out: in vitro IC50 (SUMOylation); cited from earlier work"}, "[4]": {"test_system": "NEDDylation (OTUD6B protein)", "details": "read-out: in vitro IC50 (NEDDylation) on OTUD6B protein; cited from earlier work"}}}
{"compound": "NS(=O)(=O)OC[C@@H]1C[C@@H](n2ccc3c(N[C@H]4CCc5ccccc54)ncnc32)CC1O", "note": "(some centres unmarked) [MLN4924]", "values": [{"measurement": "UBC12 protein NEDDylation", "setting": "[1]", "value": "decrease"}]}
{"compound": "NS(=O)(=O)OC[C@H]1C[C@@H](Nc2ccnc3cc(-c4cccc(SC(F)(F)F)c4)nn23)[C@H](O)[C@@H]1O", "note": "[MLN7243]", "values": [{"measurement": "effect on SUMOylation activity", "setting": "[2]", "value": "affects SUMOylation activity, but with large amounts of inhibitor"}, {"measurement": "ubiquitination activity inhibited", "setting": "[3]; 10 nM or more", "value": "more than 50%"}, {"measurement": "TMEM92 ubiquitination inhibition", "setting": "[3]; 500 nM, TMEM92 beads", "value": "maximal"}, {"measurement": "WBP2 and BEAN1 ubiquitination remaining", "setting": "[3]; 500 nM, WBP2 and BEAN1 beads", "value": "residual levels"}, {"measurement": "effect on NEDDylation (OTUD6B beads)", "setting": "NEDDylation of OTUD6B", "value": "a decrease slightly different"}, {"measurement": "IC50", "setting": "SUMOylation activity", "value": 850, "unit": "nM"}, {"measurement": "IC50", "setting": "[4]", "value": 28, "unit": "nM"}]}
